Data as given in patent publication US11432549B2, “Carbamoyl triazolinone based herbicide combinations and method of use” (Arysta LifeScience Corporation, priority 2009, dated 2022).

What was measured:
Assay type in all cases: in vivo
Digitaria ciliaris = assay: Ex 1 pot test, visual % damage
Cyperus esculentus = assay: Ex 2 pre-emergence, visual % damage; conditions: kg/ha: Amicarbazone 1.5, Clomazone/Hexazinone 2.0, mixture 1.5 + 2.0
Description: DINAMIC® (amicarbazone) and Discover (clomazone 400 g/kg+hexazinone 100 g/kg) alone or in combination were applied pre-emergence in this study. The formulations for DINAMIC® and Discover were 700 g active ingredient a.i./kg and 500 g active ingredient a.i/kg respectively.
(§1) The herbicidal effect was observed by comparing the extent of Cyperus esculentus treated with the compounds against that occurring in similar non-treated control. Herbicidal effect was visually assessed and recorded at 27, 43, 46, 60, 63, 77, 83, 97 and 124 days after treatment (DAT). Damage by the herbicidal compositions was evaluated with reference to a scale of 0% to 100% in comparison with untreated control. 0% means no damage and 100% means complete destruction of the plants.
(§2) The theoretical herbicidal effect index were calculated based on Colby and the values were indicated in bracket ( ) in Table 2-1. The herbicidal mixtures (amicarbazone+(clomazone/hexazinone)) exert a greater herbicidal action than expected according to Colby on the basis of the observed effects of the individual components when used alone. […] The underlined values in the table indicate that the observed weed killing is greater than calculated from the Colby formula and therefore indicates a synergistic weed killing effect or activity.

[1] = test system: Euphorbia heterophylla (EPHHL); assay: Ex 4 pre-emergence, visual % damage
Method: DINAMIC® (amicarbazone) in combination of various herbicides listed in Table 4-1 were tested for herbicidal activity.
as §1, with “Euphorbia heterophylla (EPHHL)” for “Cyperus esculentus”, “14, 23, 36, 49, 65” for “27, 43, 46, 60, 63, 77, 83, 97”, “77” for “124”
as §2, with “4-2. Both of the” for “2-1. The”, “(amicarbazone+Karmex) and (amicarbazone+Sencor)” for “(amicarbazone+(clomazone/hexazinone))”

For CC(C)c1nn(C(=O)NC(C)(C)C)c(=O)n1N [Amicarbazone, 4-amino-5-isopropyl-2-(tert-butyl-aminocarbonyl)-2,4-dihydro-3H-1,2,4-triazol-3-one], the herbicide effect (Digitaria ciliaris; 50 g/ha and 100 g/ha, one-leaf stage) was “small”, the percentage control (Digitaria ciliaris; single application 50 g/ha, 5 DAT) was 24% and the percentage control (Digitaria ciliaris; single application 50 g/ha, 8 DAT) was 38%. The percentage control (Digitaria ciliaris; single application 50 g/ha, 14 DAT) was 34%, the percentage control (Digitaria ciliaris; single application 50 g/ha, 21 DAT) was 34% and the percentage control (Digitaria ciliaris; single application 50 g/ha, 28 DAT) was 26%. It also gave a percentage control (Digitaria ciliaris; single application 100 g/ha, 5 DAT) of 70%, a percentage control (Digitaria ciliaris; single application 100 g/ha, 8 DAT) of 78% and a percentage control (Digitaria ciliaris; single application 100 g/ha, 14 DAT) of 82%. It also gave a percentage control (Digitaria ciliaris; single application 100 g/ha, 21 DAT) of 74%, a percentage control (Digitaria ciliaris; single application 100 g/ha, 28 DAT) of 66% and a percentage control (Digitaria ciliaris; single application 200 g/ha, 5 DAT) of 92%. It also gave a percentage control (Digitaria ciliaris; single application 200 g/ha, 8 DAT) of 96%, a percentage control (Digitaria ciliaris; single application 200 g/ha, 14 DAT) of 98% and a percentage control (Digitaria ciliaris; single application 200 g/ha, 21 DAT) of 86%. The percentage control (Digitaria ciliaris; single application 200 g/ha, 28 DAT) was 86%, the percentage control (Cyperus esculentus; Trial 1, 43 DAT) was 40% and the percentage control (Cyperus esculentus; Trial 1, 63 DAT) was 62%. For the same compound, the percentage control (Cyperus esculentus; Trial 1, 77 DAT) was 65%, the percentage control (Cyperus esculentus; Trial 2, 27 DAT) was 37% and the percentage control (Cyperus esculentus; Trial 2, 46 DAT) was 53%. The percentage control (Cyperus esculentus; Trial 2, 60 DAT) was 57%, the percentage control (Cyperus esculentus; Trial 2, 83 DAT) was 68% and the percentage control (Cyperus esculentus; Trial 2, 97 DAT) was 53%. For the same compound, the percentage control (Cyperus esculentus; Trial 2, 124 DAT) was 23%, the percentage control ([1]; 14 DAT, kg/ha or L/ha: Amicarbazone 1.00, Gesapax 3.00, Karmex 3.00, Provence 0.15, Sencor 2.00, alone or Amicarbazone + partner) was 96% and the percentage control ([1]; 14 DAT, kg/ha or L/ha: Amicarbazone 1.50, Gesapax 5.00, Karmex 5.00, Provence 0.20, Sencor 3.50, alone) was 98%. For the same compound, the percentage control ([1]; 23 DAT, kg/ha or L/ha: Amicarbazone 1.00, Gesapax 3.00, Karmex 3.00, Provence 0.15, Sencor 2.00, alone or Amicarbazone + partner) was 96%, the percentage control ([1]; 23 DAT, kg/ha or L/ha: Amicarbazone 1.50, Gesapax 5.00, Karmex 5.00, Provence 0.20, Sencor 3.50, alone) was 98% and the percentage control ([1]; 36 DAT, kg/ha or L/ha: Amicarbazone 1.00, Gesapax 3.00, Karmex 3.00, Provence 0.15, Sencor 2.00, alone or Amicarbazone + partner) was 96%. It also gave a percentage control ([1]; 36 DAT, kg/ha or L/ha: Amicarbazone 1.50, Gesapax 5.00, Karmex 5.00, Provence 0.20, Sencor 3.50, alone) of 96%, a percentage control ([1]; 49 DAT, kg/ha or L/ha: Amicarbazone 1.00, Gesapax 3.00, Karmex 3.00, Provence 0.15, Sencor 2.00, alone or Amicarbazone + partner) of 79% and a percentage control ([1]; 49 DAT, kg/ha or L/ha: Amicarbazone 1.50, Gesapax 5.00, Karmex 5.00, Provence 0.20, Sencor 3.50, alone) of 96%. For the same compound, the percentage control ([1]; 65 DAT, kg/ha or L/ha: Amicarbazone 1.00, Gesapax 3.00, Karmex 3.00, Provence 0.15, Sencor 2.00, alone or Amicarbazone + partner) was 79%, the percentage control ([1]; 65 DAT, kg/ha or L/ha: Amicarbazone 1.50, Gesapax 5.00, Karmex 5.00, Provence 0.20, Sencor 3.50, alone) was 96% and the percentage control ([1]; 77 DAT, kg/ha or L/ha: Amicarbazone 1.00, Gesapax 3.00, Karmex 3.00, Provence 0.15, Sencor 2.00, alone or Amicarbazone + partner) was 75%. It also gave a percentage control ([1]; 77 DAT, kg/ha or L/ha: Amicarbazone 1.50, Gesapax 5.00, Karmex 5.00, Provence 0.20, Sencor 3.50, alone) of 90%.
